From patent US20250223412A1, “BLOWING AGENT, FOAMING RESIN COMPOSITION, POLYURETHANE UREA RESIN FOAM, AND PRODUCTION METHOD FOR POLYURETHANE UREA FOAM” (MITSUBISHI GAS CHEMICAL COMPANY, INC., priority 2022, published 2025)

Test: Maximum carbon dioxide (CO2) release temperature of amine compound (DSC after CO2 absorption from air)
Format: physicochemical
Conditions: amine compound with CO2 absorbed (air, 23° C., 50% RH, 24 hours); heating 10° C./minute, 23 to 250° C., nitrogen
Method: A carbon dioxide detector and a Petri dish were placed in an openable desiccator (inner dimension: 370 mm×260 mm×272 mm). Subsequently the amine compound (5 mmol) was added to the Petri dish in the desiccator and the door was immediately closed to leave the amine compound to stand in the desiccator in an air environment at 23° C. and 50% RH for 24 hours. The initial concentration of carbon dioxide was adjusted to about 400 ppm.
Then the amine compound was taken out of the desiccator to give an amine compound with carbon dioxide absorbed. The maximum carbon dioxide release temperature of the amine compound with carbon dioxide absorbed was measured by subjecting the amine compound to DSC as described below. First, differential scanning calorimetry of the amine compound was performed under conditions of a temperature range of 23 to 250° C., a heating rate of 10° C./minute and a nitrogen atmosphere using a differential thermogravimeter (product name DTG-60 made by Shimadzu Corporation). The temperature at which the amount of heat absorbed due to the desorption of carbon dioxide was the maximum was calculated from the DSC curve obtained, and the temperature was determined as the maximum carbon dioxide release temperature of the amine compound.

Row | Compound | Maximum CO2 release temperature [°C]
1 | NCC1CCCC(CN)C1 (stereo not shown) [1,3-BAC, 1,3-bis(aminomethyl)cyclohexane] | 125.7
2 | NCCN [Ethylenediamine, ethylenediamine] | 103.4
3 | CC1(C)CC(N)CC(C)(CN)C1 (stereo not shown) [IPDA, isophoronediamine] | 114.4
4 | NCc1cccc(CN)c1 [MXDA, metaxylylenediamine] | 135.5
